Results from US7393834B2, “LHRH-antagonists in the treatment of fertility disorders” (AEterna Zentaris GmbH, priority 1996, dated 2008).
“Also recorded” adds a separate entry of the source. Where a SMILES comes first, the peptide text is derived from it. [ ]: non-standard residue; d: D form. dPhe(4-Cl) = N[C@H](Cc1ccc(Cl)cc1)C(=O)O; d2Nal = N[C@H](Cc1ccc2ccccc2c1)C(=O)O; dCit = NC(=O)NCCC[C@@H](N)C(=O)O; d3Pal = N[C@H](Cc1cccnc1)C(=O)O

How the values were obtained:
[1] = tested on: premature LH surge; test: Phase II clinical trial of Cetrorelix in controlled ovarian stimulation (COS/ART); format: in vivo, human; conditions: for babies born by the end of May 1996: by end of May 1996; for minimal effective dose, Dose/Day / no effect dose, Dose/Day: phase II dose finding
Method: The results of a phase II clinical trial are shown in Table I. A total of […] patients were treated.
During multiple dosing, the mean days of Cetrorelix application is 6 days. 25 babies were born by the end of May 1996 (7 following multiple doses; 18 following single/dual doses).
The hormone levels of luteinizing hormone (LH) (μg/l) (∘), follicular stimulating hormone (FSH) (μg/l) (+), progesterone (μg/l) (●), and oestradiol (E2) (ng/l) (▾) were measured in patient number 21L07 at time intervals one month (Nov. 10, 1995) and four consecutive days before (Dec. 05, 1995-Dec. 09, 1995) a dual dose regimen of Cetrorelix (3 mg) was administered subcutaneously on Dec. 10, 1995 and Dec. 11, 1995. The patient's LH, FSH, progesterone and oestradiol levels were measured afterward between Dec. 11, 1995 and Dec. 14, 1995 wherein ovulation in the patient was induced with human chorionic gonadotrophin (HCG) on Dec. 14, 1995. The patients LH, FSH, progesterone, and oestradiol levels were also measured after HCG treatment through ovum pick up (OPU; Dec. 16, 1995), and embryo transfer (ET) on […]. Hormone levels were also measured on the 4th and (Dec. 22, 1995) and 16th day after ET(Jan. 3,1996).
238 patients were treated with Cetrorelix by subcutaneous injection of Cetrorelix Acetat-Lyophilisat.
134 patients were treated with multiple doses and 104 patients with single or dual doses. The multiple doses are 0.25 mg/day or higher. […]

[2] = tested on: controlled ovarian stimulation (COS); test: Combination of Cetrorelix, clomifen citrate and gonadotrophins for hormonal stimulation for IVF/ICSI; format: in vivo, human; conditions: for fertilization rates: ICSI
Method: Combination of the GnRH antagonist Cetrorelix, clomifen citrate(CC) and gonadotrophins for hormonal stimulation for IVF/ICSI. New controlled ovarian stimulation (COS) protocols become possible, which combine the advantages of clomifen citrate/gonadotrophin stimulation and pituitary suppression with Cetrorelix. COS was started on day 2 after spontaneous menstrual bleeding using 100 mg CC per day for 5 or 7 days. The antagonist Cetrorelix (0.25 mg s.c.) was given starting on stimulation day 6 combined with either urinary hMG or recombinant FSH (3 ampoules/d) in a prospective randomized way. After two days of gonadotrophin injection, the dose was individualized. Human chorionic gonadotropin was given for ovulation induction, if at least 3 follicles were ≧17 mm in diameter. In total, 30 patients were included in the study. 15 were randomized in each group. Intra cytoplasmatic sperm injection (ICSI) was applied in each case.

[3] = tested on: follicular growth / pituitary; test: Animal experiments and clinical studies with Cetrorelix in normal, unstimulated cycles; format: in vivo
From the text: These low dosage levels present new possibilities for manipulating the time of ovulation during a normal, not exogenous gonadotropin-stimulated cycle, without affecting the viability of the growing follicle. In case of inadequate follicular growth related to treatment with LHRH-antagonists, low dose and short term administration of gonadotrophin or other trophic compounds will compensate for these effects. Subsequently, by stopping the LHRH-antagonist treatment, it is possible to let the normal ovulation occur or to induce ovulation by exogenous manipulation, if necessary. Ovulation induction was induced by the administration of standard HCG or by administration of LHRH and/or LHRH agonistic analogs. These described treatment alternatives are a departure from existing protocols, since they are possible only if preceded by treatment for LH-surge-control with an LHRH-antagonist. In animal and clinical studies with Cetrorelix it was shown that the responsiveness of the pituitary to LHRH or agonistic analogs is preserved under these conditions of treatment. Without this treatment, the pituitary cannot respond after agonistic pretreatment for LH-surge control due to receptor down-regulation. In addition, the possible use of ovulation inducing agents other than HCG results in a-reduced incidence of ovarian hyperstimulation syndrome.

[4] = tested on: premature LH surges; conditions: short term treatment, first clinical trials; cited from earlier work
[5] = all phase II patients, both regimens
[6] = single patient, dual dose regimen of 3 mg s.c.

## CC(=O)N[C@H](Cc1ccc2ccccc2c1)C(=O)N[C@H](Cc1ccc(Cl)cc1)C(=O)N[C@H](Cc1cccnc1)C(=O)N[C@@H](CO)C(=O)N[C@@H](Cc1ccc(O)cc1)C(=O)N[C@H](CCCNC(N)=O)C(=O)N[C@@H](CC(C)C)C(=O)N[C@@H](CCCNC(=N)N)C(=O)N1CCC[C@H]1C(=O)N[C@H](C)C(N)=O [Cetrorelix] (Ac-[d2Nal][dPhe(4-Cl)][d3Pal]SY[dCit]LRP[dA]-NH2)
[1]; after both posologies (single and multiple dose)
  fertilization rates, follicle and oocytes quality: good fertilization rates
[1]; after both treatments (single and multiple dose)
  pregnancy rates: good
[1]; all patients
  babies born by the end of May 1996: 25
[1]; [5]
  pregnancies obtained (number): 71 pregnancies
  pregnancies obtained (rate): 30%
[1]; following multiple doses
  babies born: 15
  babies born by the end of May 1996: 7
[1]; following single/dual doses
  babies born: 29
  babies born by the end of May 1996: 18
[1]; multiple dose regimen, 134 patients
  pregnancies (rate): 28.4%
[1]; multiple dose regimen, of 134 patients
  pregnancies (number): 38
[1]; multiple dose, 3-7/14 days
  minimal effective dose, Dose/Day: 0.25 min. effect, dose mg
  no effect dose, Dose/Day: 0.10 no effect. dose mg
[1]; patients undergoing COS/ART, multiple doses of 0.25 mg or higher or single dose of 3 mg or higher, s.c.
  premature LH surge: prevention of any premature LH surge; also recorded: No premature LH surge
[1]; single dose (1 day)
  minimal effective dose, Dose/Day: 3 min. effective dose mg
  no effect dose, Dose/Day: 2 no effect. Dose mg
[1]; single dose regimen, one injection of 3 mg
  duration of effect to prevent a premature LH surge: up to 6.5 days
[1]; [6]
  FSH secretion (FIG. 1): maintained at a natural level
  individual estrogen development (FIG. 1): not affected
  premature LH surge (FIG. 1): absolute prevention of any premature LH surge
[1]; single/dual dosage regimen, 104 patients
  pregnancies (rate): 31.7%
[1]; single/dual dosage regimen, of 104 patients
  pregnancies (number): 33
[2]; 30 patients, both groups
  ovarian hyperstimulation syndrome (OHSS): no case of OHSS was observed
[2]; hMG group
  clinical pregnancy rate/transfer: 4/14
  metaphase II oocytes: 74%
  oocytes per cycle retrieved: 7.7±3.8
  transfer rate/cycle: 87%
  fertilization rates: 42%
[2]; recombinant FSH group
  clinical pregnancy rate/transfer: 1/11
  metaphase II oocytes: 80%
  oocytes per cycle retrieved: 6.4±2.6
  transfer rate/cycle: 80%
  fertilization rates: 53%
[3]; multiple or single injections, extremely low dosage levels
  normal, unstimulated follicular growth: arrest of the normal, unstimulated follicular growth
[3]; under LH-surge-control treatment with the antagonist
  responsiveness of the pituitary to LHRH or agonistic analogs: preserved
[4]
  premature LH surges during stimulated cycles: complete avoidance of premature LH surges
